Measured values as given in patent US20260258084A1, “New Peptides as Selective IL-23 Receptor Antagonists” (Sanofi, priority 2022, published 2026).
Values after ≈ are worked out from the molar mass of the structure shown. Like-named read-outs stand apart in the source and are kept apart here. Starred links: 1 amine or outer side, 2 acyl side, 3 side chain; linkers in the order of their positions; H or OH if unused. Positions of bridges follow the written chain, without caps; N, C: chain ends. Non-standard residues stand in square brackets, D forms with d. Residues, ends and D or L forms follow the SMILES beside them. *: point of attachment. X6 = O=C(CCC(=O)[*:3])N[C@@H](CS[*:2])C(=O)[*:1]; Trp(7-Me) = Cc1cccc2c(C[C@H](N)C(=O)O)c[nH]c12; X1 = O=C(CCCCN[*:3])N[C@@H](CS[*:2])C(=O)[*:1]; αMeLys(Me2) = CN(C)CCCC[C@](C)(N)C(=O)O; 2Nal = N[C@@H](Cc1ccc2ccccc2c1)C(=O)O; d2Nal = N[C@H](Cc1ccc2ccccc2c1)C(=O)O; 3Pal = N[C@@H](Cc1cccnc1)C(=O)O; Lys(Me) = CNCCCC[C@H](N)C(=O)O; αMeL = CC(C)C[C@](C)(N)C(=O)O; Suc = O=C(CCC(=O)[*:2])[*:1]; Me2NCH2CH2 = CN(C)CC*; Aib = CC(C)(N)C(=O)O; Ava = NCCCCC(=O)O; Sar = CNCC(=O)O

Assays:
[1] = tested on: IL-23 induced STAT3 signaling in HEK-Blue™ IL-23 cells; test: IL-23 induced STAT3 signaling in HEK-Blue IL-23 cells (SEAP reporter); format: cell-based; conditions: human IL23 0.25 ng/ml, read-out: pSTAT3
Outline: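 HEK-Blue IL-23 cells (10,000/well) pre-incubated 60 min at 37 °C with serially diluted peptides, then stimulated overnight with human IL-23 (0.25 ng/ml final). STAT3-driven SEAP in supernatant detected with QUANTI-Blue after 45 min at RT (OD 620-655 nm); dose-response curves fitted.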

[2] = Solubility testing of peptides at different pH; format: physicochemical; conditions: target concentration 1 mg/ml, 2 hours agitation
Outline: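 Solid obtained by drying down DMSO stock was taken up at 1 mg/mL in 50 mM HCl pH 1.2 or 50 mM phosphate pH 6.5, 7.4 or 9.0, agitated gently for 2 h, then filtered (0.45 μm). Solubility by UPLC-UV peak area against a DMSO reference standard curve, corrected for extinction coefficients.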

Pancreatin = test: Protease stability in simulated intestinal fluid (Pancreatin-SIF, FaSSIF); format: in vitro ADME; conditions: 1 μM peptide, 37° C.; for remaining at 1 h, 1 µM: 60 min, read-out: FaSSIF 60 (min), remaining percent of peptide; for remaining at 2 h, 1 µM: 120 min, read-out: FaSSIF 120 (min), remaining percent of peptide; for remaining at 4 h, 1 µM: 240 min, read-out: FaSSIF 240 (min), remaining percent of peptide
Outline: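 Peptide (1 μM final) was incubated at 37° C in simulated intestinal fluid containing pancreatin (1 mg per 10 mL SIF concentrate). Samples were quenched with ethanol/0.1% HCOOH at 0, 60, 120 and 240 min and analysed by LC-MS/MS. Percent remaining is the peak area relative to time 0 (100%).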

[3] = molecular target: T1, human interleukin-23 receptor (recombinant human IL-23R-Fc chimera) (Homo sapiens, UniProt Q5VWK5); test: Human ELISA IL23/IL23R (assay for specific human IL23R antagonists); format: binding; conditions: Table 10; read-out: Human ELISA IL23/IL23R IC50
T1 construct: Fc (IgG Fc fusion)
Outline: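 Plates coated overnight at 4 °C with human IL23 ([…]), blocked, then serially diluted peptides added with recombinant human IL-23R-Fc (0.1 μg/ml final) for 60 min at room temperature. Bound receptor detected with anti-human IgG1-HRP and fluorogenic peroxidase substrate.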

Pepsin = tested on: T2, Pepsin; test: Protease stability in simulated gastric fluid (Pepsin-SGF, FaSSGF); format: in vitro ADME; conditions: simulated gastric fluid with pepsin (Pepsin-SGF), 60 min, 1 μM peptide, 37° C., read-out: FaSSGF 60 (min), remaining percent of peptide
T2 construct: purchased Merck Millipore
Outline: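 Peptides at 1 μM final in pepsin-containing SGF at 37° C, sampled at 0, 60, 120 and 240 min, quenched with ethanol (0.1% HCOOH). Analysed by LCMS/MS; percent remaining from peak area relative to time 0 (set to 100%).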

| SMILES | IC50 [1] [nM] | solubility at 2 h ([2]; 50 mM HCl buffer, 50 mM HCl pH 1.2, read-out: Solubility Buffer pH 1.2) [µg/mL] | solubility at 2 h ([2]; 50 mM phosphate buffer pH 6.5, read-out: Solubility Buffer pH 6.5) [µg/mL] | solubility at 2 h ([2]; 50 mM phosphate buffer pH 7.4, read-out: Solubility Buffer pH 7.4) [µg/mL] | remaining at 1 h, 1 µM (Pancreatin) [%] | remaining at 2 h, 1 µM (Pancreatin) [%] | remaining at 4 h, 1 µM (Pancreatin) [%] | IC50 [3] [nM] | remaining at 1 h, 1 µM (Pepsin) [%] |
| --- | --- | --- | --- | --- | --- | --- | --- | --- | --- |
| COc1ccc(C[C@@H]2NC(=O)[C@@H]3CSSC[C@H](NC(=O)CCCCNC(=O)CC[C@@H](C(=O)N[C@@H](CC(N)=O)C(=O)N[C@@H](CC(N)=O)C(N)=O)NC(=O)C(C)(C)NC(=O)[C@H](Cc4ccc5ccccc5c4)NC2=O)C(=O)N[C@@H](CC(N)=O)C(=O)N[C@@H]([C@@H](C)O)C(=O)N[C@@H](Cc2c[nH]c4ccccc24)C(=O)N[C@@H](CCC(N)=O)C(=O)N3)cc1 [compound 1] ([Ava]CNTWQCY(Me)[2Nal][Aib]ENN-NH2; disulfide 2-7; lactam N-11) | 18.5 | 100 (≈ 60.6 µM) | < 50 | < 50 | 72 | 74 | 58 | 0.72 | 2 |
| CC(=O)NCCCC[C@@H]1NC(=O)[C@H](Cc2c[nH]c3c(C)cccc23)NC(=O)[C@@H](NC(C)=O)CCCCNC(=O)[C@@H]2CSSC[C@H](NC1=O)C(=O)N[C@@H](Cc1ccc(OCCN(C)C)cc1)C(=O)N[C@H](Cc1ccc3ccccc3c1)C(=O)N[C@@](C)(CCCCN(C)C)C(=O)N[C@H](C(=O)N[C@@H](CC(N)=O)C(=O)N[C@@H](Cc1cccnc1)C(=O)N(C)CC(N)=O)CCC(=O)NCCCCC(=O)N2 [compound 149] (Ac-K[Trp(7-Me)]K(Ac)CY(Me2NCH2CH2)[d2Nal][αMeLys(Me2)]EN[3Pal][Sar]-NH2; linker 1-4-8 via X1) | 0.04 |  |  |  | 95 | 99 | 97 | 0.64 | 101 |
| CC(=O)NCCCC[C@@H]1NC(=O)[C@H](Cc2c[nH]c3c(C)cccc23)NC(=O)[C@H]([C@@H](C)O)NC(=O)[C@H](CC(N)=O)NC(=O)[C@@H]2CSSC[C@H](NC1=O)C(=O)N[C@@H](Cc1ccc(OCCN(C)C)cc1)C(=O)N[C@@H](Cc1ccc3ccccc3c1)C(=O)N[C@@](C)(CCCCN(C)C)C(=O)N[C@H](C(=O)N[C@@H](CC(N)=O)C(=O)N[C@@H](Cc1cccnc1)C(=O)N(C)CC(N)=O)CCCCNC(=O)CCC(=O)N2 [compound 151] (CNT[Trp(7-Me)]K(Ac)CY(Me2NCH2CH2)[2Nal][αMeLys(Me2)]KN[3Pal][Sar]-NH2; disulfide 1-6; linker N-10 via Suc) | 0.06 |  |  |  | 97 | 97 | 96 | 0.61 | 101 |
| Cc1cccc2c(C[C@@H]3NC(=O)[C@H]([C@@H](C)O)NC(=O)[C@H](CC(N)=O)NC(=O)[C@@H]4CSSC[C@H](NC(=O)[C@H](CCC(N)=O)NC3=O)C(=O)N[C@@H](Cc3ccc(OCCN(C)C)cc3)C(=O)N[C@@H](Cc3ccc5ccccc5c3)C(=O)N[C@@](C)(CCCCN(C)C)C(=O)N[C@H](C(=O)N[C@@H](CC(N)=O)C(=O)N[C@@H](Cc3cccnc3)C(=O)N(C)CC(N)=O)CCCCNC(=O)CCC(=O)N4)c[nH]c12 [compound 152] (CNT[Trp(7-Me)]QCY(Me2NCH2CH2)[2Nal][αMeLys(Me2)]KN[3Pal][Sar]-NH2; disulfide 1-6; linker N-10 via Suc) | 0.04 |  |  |  | 100 | 100 | 98 | 0.38 | 99 |
| Cc1cccc2c(C[C@@H]3NC(=O)[C@H]([C@@H](C)O)NC(=O)[C@H](CC(N)=O)NC(=O)[C@@H]4CSSC[C@H](NC(=O)[C@H](CC(C)C)NC3=O)C(=O)N[C@@H](Cc3ccc(OCCN(C)C)cc3)C(=O)N[C@@H](Cc3ccc5ccccc5c3)C(=O)N[C@@](C)(CCCCN(C)C)C(=O)N[C@H](C(=O)N[C@@H](CC(N)=O)C(=O)N[C@@H](Cc3cccnc3)C(=O)N(C)CC(N)=O)CCCCNC(=O)CCC(=O)N4)c[nH]c12 [compound 154] (CNT[Trp(7-Me)]LCY(Me2NCH2CH2)[2Nal][αMeLys(Me2)]KN[3Pal][Sar]-NH2; disulfide 1-6; linker N-10 via Suc) | 0.08 |  |  |  | 99 | 97 | 96 | 0.52 | 96 |
| Cc1cccc2c(C[C@@H]3NC(=O)[C@H]([C@@H](C)O)NC(=O)[C@H](CC(N)=O)NC(=O)[C@@H]4CSSC[C@H](NC(=O)[C@H](CC(C)C)NC3=O)C(=O)N[C@@H](Cc3ccc(OCCN(C)C)cc3)C(=O)N[C@@H](Cc3ccc5ccccc5c3)C(=O)N[C@@](C)(CCCCN(C)C)C(=O)N[C@H](C(=O)N[C@@H](C)C(=O)N[C@@H](Cc3cccnc3)C(=O)N(C)CC(N)=O)CCCCNC(=O)CCC(=O)N4)c[nH]c12 [compound 155] (CNT[Trp(7-Me)]LCY(Me2NCH2CH2)[2Nal][αMeLys(Me2)]KA[3Pal][Sar]-NH2; disulfide 1-6; linker N-10 via Suc) | 0.1 |  |  |  | 98 | 98 | 98 | 0.7 | 98 |
| CC(=O)NCCCC[C@@H]1NC(=O)[C@H](Cc2c[nH]c3c(C)cccc23)NC(=O)[C@H]([C@@H](C)O)NC(=O)[C@H](CC(N)=O)NC(=O)[C@@H]2CSSC[C@H](NC1=O)C(=O)N[C@@H](Cc1ccc(OCCN(C)C)cc1)C(=O)N[C@@H](Cc1ccc3ccccc3c1)C(=O)N[C@@](C)(CCCCN(C)C)C(=O)N[C@H](C(=O)N[C@@H](CC(N)=O)C(=O)N[C@@H](Cc1cccnc1)C(=O)N(C)CC(N)=O)CCCCN(C)C(=O)CCC(=O)N2 [compound 156] (CNT[Trp(7-Me)]K(Ac)CY(Me2NCH2CH2)[2Nal][αMeLys(Me2)][Lys(Me)]N[3Pal][Sar]-NH2; disulfide 1-6; linker N-10 via Suc) | 0.08 |  |  |  | 99 | 99 | 97 | 0.61 | 100 |
| CC(=O)NCCCC[C@@H]1NC(=O)[C@H](Cc2c[nH]c3c(C)cccc23)NC(=O)[C@H]([C@@H](C)O)NC(=O)[C@H](CC(N)=O)NC(=O)[C@@H]2CSSC[C@H](NC1=O)C(=O)N[C@@H](Cc1ccc(OCCN(C)C)cc1)C(=O)N[C@@H](Cc1ccc3ccccc3c1)C(=O)NC(C)(C)C(=O)N[C@H](C(=O)N[C@@H](CC(N)=O)C(=O)N[C@@H](Cc1cccnc1)C(=O)N(C)CC(N)=O)CCCCNC(=O)CCC(=O)N2 [compound 157] (CNT[Trp(7-Me)]K(Ac)CY(Me2NCH2CH2)[2Nal][Aib]KN[3Pal][Sar]-NH2; disulfide 1-6; linker N-10 via Suc) | 0.06 |  |  |  | 80 | 78 | 74 | 0.42 | 100 |
| CC(=O)N[C@H]1CCCCNC(=O)[C@@H]2CSSC[C@H](NC(=O)[C@H](CC(C)C)NC(=O)[C@H](Cc3c[nH]c4c(C)cccc34)NC1=O)C(=O)N[C@@H](Cc1ccc(OCCN(C)C)cc1)C(=O)N[C@@H](Cc1ccc3ccccc3c1)C(=O)N[C@@](C)(CC(C)C)C(=O)N[C@H](C(=O)N[C@@H](CC(N)=O)C(=O)N[C@@H](Cc1cccnc1)C(=O)N(C)CC(N)=O)CCCCNC(=O)CCC(=O)N2 [compound 158] (Ac-K[Trp(7-Me)]LCY(Me2NCH2CH2)[2Nal][αMeL]KN[3Pal][Sar]-NH2; linker 1-4-8 via X6) | 0.39 |  |  |  | 80 | 73 | 74 | 1.93 | 37 |
